In patent publication US20200207759A1, “NEW PROPANAMINE DERIVATIVES FOR TREATING PAIN AND PAIN RELATED CONDITIONS” (ESTEVE PHARMACEUTICALS, S.A., priority 2017, published 2020):

Key:
[1] = target: Human α2δ-1 subunit of Cav2.2 calcium channel (Homo sapiens, UniProt P54289); assay: Binding assay to human α2δ-1 subunit of Cav2.2 calcium channel, [3H]-Gabapentin; conditions: human α2δ-1 enriched membranes, 15 nM [3H]-Gabapentin; read-out: Ki (nM) alpha2delta Hum
Experimental: Binding Assay to Human α2δ-1 Subunit of Cav2.2 Calcium Channel.
Human α2δ-1 enriched membranes (2.5 μg) were incubated with 15 nM of radiolabeled [3H]-Gabapentin in assay buffer containing Hepes-KOH 10 mM, pH 7.4.
(§1) NSB (non specific binding) was measured by adding 10 μM pregabalin. After 60 min incubation at 27° C., binding reaction was terminated by filtering through Multiscreen GF/C (Millipore) presoaked in 0.5% polyethyleneimine in Vacuum Manifold Station, followed by 3 washes with ice-cold filtration buffer containing 50 mM Tris-HCl, pH 7.4.
Filter plates were dried at 60° C. for 1 hour and 30 μl of scintillation cocktail were added to each well before radioactivity reading.
Readings were performed in a Trilux 1450 Microbeta radioactive counter (Perkin Elmer).

[2] = target: Human norepinephrine transporter (NET) (Homo sapiens, UniProt P23975); assay: Binding assay to human norepinephrine transporter (NET), [3H]-Nisoxetin; conditions: human NET enriched membranes, 5 nM [3H]-Nisoxetin; read-out: Ki (nM) NET Hum
Sequence of Human norepinephrine transporter (NET) (P23975 whole entry): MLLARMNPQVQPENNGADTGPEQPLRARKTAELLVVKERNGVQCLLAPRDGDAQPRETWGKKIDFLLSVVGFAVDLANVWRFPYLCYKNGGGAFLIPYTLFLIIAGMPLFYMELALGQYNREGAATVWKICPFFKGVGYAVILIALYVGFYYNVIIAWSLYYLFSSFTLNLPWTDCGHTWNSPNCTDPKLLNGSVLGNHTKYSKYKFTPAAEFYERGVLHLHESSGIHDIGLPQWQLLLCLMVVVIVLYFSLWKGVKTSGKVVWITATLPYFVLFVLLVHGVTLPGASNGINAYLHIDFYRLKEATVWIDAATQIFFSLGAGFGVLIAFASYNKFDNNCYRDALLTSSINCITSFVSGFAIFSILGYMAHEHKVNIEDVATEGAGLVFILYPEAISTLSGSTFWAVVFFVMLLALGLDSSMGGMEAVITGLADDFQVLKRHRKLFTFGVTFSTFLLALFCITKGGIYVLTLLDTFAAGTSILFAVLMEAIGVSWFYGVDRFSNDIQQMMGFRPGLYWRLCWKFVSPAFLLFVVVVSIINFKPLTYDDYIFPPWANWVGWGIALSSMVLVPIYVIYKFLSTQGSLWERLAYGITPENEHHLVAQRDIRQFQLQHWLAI
Experimental: Binding Assay to Human Norepinephrine Transporter (NET).
Human norepinephrine transporter (NET) enriched membranes (5 μg) were incubated with 5 nM of radiolabeled [3H]-Nisoxetin in assay buffer containing 50 mM Tris-HCl, 120 mM NaCl, 5 mM KCl, pH 7.4.
as §1, with “1 μM.” for “10 μM pregabalin.”, “4°” for “27°”, “Tris-HCl, 0.9% NaCl,” for “Tris-HCl,”, “7.4. Filter plates were dried at 60° C. for 1 hour and 30 μl of scintillation cocktail were added to each well before radioactivity reading.” for “7.4.”

Sequence of Human α2δ-1 subunit of Cav2.2 calcium channel (P54289 25-1103): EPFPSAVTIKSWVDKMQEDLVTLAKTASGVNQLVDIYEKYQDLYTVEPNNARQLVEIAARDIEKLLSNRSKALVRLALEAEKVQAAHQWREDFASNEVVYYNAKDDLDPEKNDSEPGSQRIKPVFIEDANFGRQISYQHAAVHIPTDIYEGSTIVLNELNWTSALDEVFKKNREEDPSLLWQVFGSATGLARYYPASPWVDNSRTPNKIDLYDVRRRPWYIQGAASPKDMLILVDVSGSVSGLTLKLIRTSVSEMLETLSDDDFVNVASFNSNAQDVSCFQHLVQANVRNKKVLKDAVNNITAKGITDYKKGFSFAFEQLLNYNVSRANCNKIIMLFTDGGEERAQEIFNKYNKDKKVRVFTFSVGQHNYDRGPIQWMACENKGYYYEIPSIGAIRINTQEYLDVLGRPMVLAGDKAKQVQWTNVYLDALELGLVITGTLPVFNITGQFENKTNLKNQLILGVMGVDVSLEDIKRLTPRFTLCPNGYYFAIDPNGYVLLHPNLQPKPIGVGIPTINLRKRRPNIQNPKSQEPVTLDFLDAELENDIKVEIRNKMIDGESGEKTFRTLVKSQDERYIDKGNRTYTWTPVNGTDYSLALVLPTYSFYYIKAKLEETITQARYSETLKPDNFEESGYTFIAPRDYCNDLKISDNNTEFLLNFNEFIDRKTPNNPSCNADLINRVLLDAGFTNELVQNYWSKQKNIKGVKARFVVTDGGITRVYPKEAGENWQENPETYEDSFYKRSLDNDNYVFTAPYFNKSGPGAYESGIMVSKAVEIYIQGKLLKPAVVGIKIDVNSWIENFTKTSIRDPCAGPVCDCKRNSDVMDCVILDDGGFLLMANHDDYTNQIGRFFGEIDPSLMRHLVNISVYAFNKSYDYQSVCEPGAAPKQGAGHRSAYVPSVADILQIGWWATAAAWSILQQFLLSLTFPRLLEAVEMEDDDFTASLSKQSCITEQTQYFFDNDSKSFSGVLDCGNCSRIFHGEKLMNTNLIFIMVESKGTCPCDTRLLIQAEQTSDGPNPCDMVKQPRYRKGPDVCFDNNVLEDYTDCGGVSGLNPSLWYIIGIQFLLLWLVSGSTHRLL

| Compound | Ki [1] | Ki [2] |
| --- | --- | --- |
| CNCC[C@H](c1ccc(Cl)s1)N1CCc2ncccc21 [Example 41, (R)-3-(5-Chlorothiophen-2-yl)-3-(2,3-dihydro-1H-pyrrolo[3,2-b]pyridin-1-yl)-N-methylpropan-1-amine] | 500 to 3000 nM | > 1000 nM |
| CNCC[C@H](c1ccc(C)s1)N1CCc2ncccc21 [Example 44, (R)-3-(2,3-Dihydro-1H-pyrrolo[3,2-b]pyridin-1-yl)-N-methyl-3-(5-methylthiophen-2-yl)propan-1-amine] | 500 to 3000 nM | > 1000 nM |
| CNCCC(c1cccs1)N1CCc2ncccc21 (stereo not drawn) [Example 3, 3-(2,3-Dihydro-1H-pyrrolo[3,2-b]pyridin-1-yl)-N-methyl-3-(thiophen-2-yl)propan-1-amine] | 500 to 3000 nM | 500 to 1000 nM |
| CNCC[C@@H](c1cccs1)N1CC(C)(C)c2nc(OC)ccc21 [Example 113, (S)-3-(5-Methoxy-3,3-dimethyl-2,3-dihydro-1H-pyrrolo[3,2-b]pyridin-1-yl)-N-methyl-3-(thiophen-2-yl)propan-1-amine] | 500 to 3000 nM | 500 to 1000 nM |
| CNCCC(c1cccs1)N1CCc2ccncc21 (stereo not drawn) [Example 2, 3-(2,3-Dihydro-1H-pyrrolo[2,3-c]pyridin-1-yl)-N-methyl-3-(thiophen-2-yl)propan-1-amine] | 500 to 3000 nM | > 1000 nM |
| CNCC[C@@H](c1cccs1)N1c2ccccc2C[C@H]1C [Example 117, (S)—N-methyl-3-((R)-2-methylindolin-1-yl)-3-(thiophen-2-yl)propan-1-amine] | ≥ 3000 nM | < 100 nM |
| CCNCC[C@H](c1ccsc1)N1CCc2ncc(F)cc21 [Example 91, (R)-N-ethyl-3-(6-fluoro-2,3-dihydro-1H-pyrrolo[3,2-b]pyridin-1-yl)-3-(thiophen-3-yl)propan-1-amine] | 500 to 3000 nM | > 1000 nM |
| CNCC[C@H](c1cccc(F)c1)N1CC(C)(C)c2ncccc21 [Example 85, (R)-3-(3,3-Dimethyl-2,3-dihydro-1H-pyrrolo[3,2-b]pyridin-1-yl)-3-(3-fluorophenyl)-N-methylpropan-1-amine] | ≥ 3000 nM | > 1000 nM |
| CNCC[C@H](c1nccs1)N1CCc2ncccc21 [Example 54, (R)-3-(2,3-Dihydro-1H-pyrrolo[3,2-b]pyridin-1-yl)-N-methyl-3-(thiazol-2-yl)propan-1-amine] | ≥ 3000 nM | > 1000 nM |
| CNCC[C@@H](c1cccs1)N1CCc2nc(C(C)C)ccc21 [Example 49, (S)-3-(5-Isopropyl-2,3-dihydro-1H-pyrrolo[3,2-b]pyridin-1-yl)-N-methyl-3-(thiophen-2-yl)propan-1-amine] | ≥ 3000 nM | > 1000 nM |
| CNCCC(c1cccs1)N1CCc2nc(C)ccc21 (stereo not drawn) [Example 11, N-methyl-3-(5-methyl-2,3-dihydro-1H-pyrrolo[3,2-b]pyridin-1-yl)-3-(thiophen-2-yl)propan-1-amine] | 100 to 500 nM | 500 to 1000 nM |
| CNCC[C@H](c1cccs1)N1CCc2ncccc21 [Example 17, (R)-3-(2,3-dihydro-1H-pyrrolo[3,2-b]pyridin-1-yl)-N-methyl-3-(thiophen-2-yl)propan-1-amine] | 500 to 3000 nM | 100 to 500 nM |
| CNCC[C@H](c1ccsc1)N1CCc2ncc(F)cc21 [Example 28, (R)-3-(6-Fluoro-2,3-dihydro-1H-pyrrolo[3,2-b]pyridin-1-yl)-N-methyl-3-(thiophen-3-yl)propan-1-amine] | 100 to 500 nM | 500 to 1000 nM |
| CNCCC(c1cccs1)N1CCCc2ccccc21 (stereo not drawn) [Example 4, 3-(3,4-Dihydroquinolin-1(2H)-yl)-N-methyl-3-(thiophen-2-yl)propan-1-amine] | ≥ 3000 nM | 100 to 500 nM |
| CNCC[C@H](c1cccs1)N1CCc2ncc(OC)cc21 [Example 30, (R)-3-(6-Methoxy-2,3-dihydro-1H-pyrrolo[3,2-b]pyridin-1-yl)-N-methyl-3-(thiophen-2-yl)propan-1-amine] | 100 to 500 nM | > 1000 nM |
| CNCC[C@@H](c1ccsc1)N1CCc2ncc(C)cc21 [Example 102, (S)—N-methyl-3-(6-methyl-2,3-dihydro-1H-pyrrolo[3,2-b]pyridin-1-yl)-3-(thiophen-3-yl)propan-1-amine] | 500 to 3000 nM | > 1000 nM |
| CNCCC(c1cccs1)N1CCc2ccc(C#N)cc21 (stereo not drawn) [Example 94, 1-(3-(Methylamino)-1-(thiophen-2-yl)propyl)indoline-6-carbonitrile] | 100 to 500 nM | > 1000 nM |
| CNCC[C@H](c1sccc1Cl)N1CCc2ncccc21 [Example 36, (R)-3-(3-Chlorothiophen-2-yl)-3-(2,3-dihydro-1H-pyrrolo[3,2-b]pyridin-1-yl)-N-methylpropan-1-amine] | ≥ 3000 nM | 100 to 500 nM |

Further lines, results first:

| Ki [1] | Ki [2] | Compound |
| --- | --- | --- |
| < 100 nM | > 1000 nM | CNCC[C@H](c1ccsc1)N1CC(C)(C)c2nc(C)c(F)cc21 [Example 90, (R)-3-(6-Fluoro-3,3,5-trimethyl-2,3-dihydro-1H-pyrrolo[3,2-b]pyridin-1-yl)-N-methyl-3-(thiophen-3-yl)propan-1-amine] |
| 100 to 500 nM | 100 to 500 nM | CNCC[C@@H](c1ccsc1)N1CC(C)(C)c2nc(C(F)(F)F)ccc21 [Example 107, (S)-3-(3,3-Dimethyl-5-(trifluoromethyl)-2,3-dihydro-1H-pyrrolo[3,2-b]pyridin-1-yl)-N-methyl-3-(thiophen-3-yl)propan-1-amine] |
| 100 to 500 nM | > 1000 nM | CCNCCC(c1cccs1)N1CCc2ncccc21 (stereo not drawn) [Example 8, 3-(2,3-Dihydro-1H-pyrrolo[3,2-b]pyridin-1-yl)-N-ethyl-3-(thiophen-2-yl)propan-1-amine] |
| < 100 nM | > 1000 nM | CNCCC(c1ccsc1)N1CC(C)(C)c2ncc(F)cc21 (stereo not drawn) [Example 65, 3-(6-Fluoro-3,3-dimethyl-2,3-dihydro-1H-pyrrolo[3,2-b]pyridin-1-yl)-N-methyl-3-(thiophen-3-yl)propan-1-amine] |
| 100 to 500 nM | < 100 nM | CNCC[C@@H](c1cccs1)N1CC(C)(C)c2nc(C)ccc21 [Example 35, (S)-N-methyl-3-(thiophen-2-yl)-3-(3,3,5-trimethyl-2,3-dihydro-1H-pyrrolo[3,2-b]pyridin-1-yl)propan-1-amine] |
| 100 to 500 nM | 100 to 500 nM | CNCC[C@@H](c1ccsc1)N1CC(C)(C)c2nc(C)ccc21 [Example 59, (S)-N-methyl-3-(thiophen-3-yl)-3-(3,3,5-trimethyl-2,3-dihydro-1H-pyrrolo[3,2-b]pyridin-1-yl)propan-1-amine] |
| 100 to 500 nM | > 1000 nM | CNCC[C@H](c1cccs1)N1CC(C)(C)c2nc(OC)ccc21 [Example 114, (R)-3-(5-methoxy-3,3-dimethyl-2,3-dihydro-1H-pyrrolo[3,2-b]pyridin-1-yl)-N-methyl-3-(thiophen-2-yl)propan-1-amine] |
| < 100 nM | > 1000 nM | CNCC[C@H](c1cccs1)N1CC(C)(C)c2nc(C)ccc21 [Example 34, (R)-N-methyl-3-(thiophen-2-yl)-3-(3,3,5-trimethyl-2,3-dihydro-1H-pyrrolo[3,2-b]pyridin-1-yl)propan-1-amine] |
| 100 to 500 nM | 500 to 1000 nM | CNCC[C@@H](c1ccsc1)N1CC(C)(C)c2ncc(F)cc21 [Example 88, (S)-3-(6-Fluoro-3,3-dimethyl-2,3-dihydro-1H-pyrrolo[3,2-b]pyridin-1-yl)-N-methyl-3-(thiophen-3-yl)propan-1-amine] |
| 100 to 500 nM | 100 to 500 nM | CNCC[C@@H](c1ccsc1)N1CCc2ncccc21 [Example 23, (S)-3-(2,3-Dihydro-1H-pyrrolo[3,2-b]pyridin-1-yl)-N-methyl-3-(thiophen-3-yl)propan-1-amine] |
| 100 to 500 nM | 100 to 500 nM | CNCCC(c1ccsc1)N1CCc2ncccc21 (stereo not drawn) [Example 10, 3-(2,3-Dihydro-1H-pyrrolo[3,2-b]pyridin-1-yl)-N-methyl-3-(thiophen-3-yl)propan-1-amine] |
| 100 to 500 nM | 100 to 500 nM | CNCCC(c1cccs1)N1CC(C)(C)c2nc(OC)ccc21 (stereo not drawn) [Example 99, 3-(5-Methoxy-3,3-dimethyl-2,3-dihydro-1H-pyrrolo[3,2-b]pyridin-1-yl)-N-methyl-3-(thiophen-2-yl)propan-1-amine] |
| 100 to 500 nM | > 1000 nM | CNCC[C@H](c1ccsc1)N1CC(C)(C)c2ncc(C)cc21 [Example 60, (R)-N-methyl-3-(thiophen-3-yl)-3-(3,3,6-trimethyl-2,3-dihydro-1H-pyrrolo[3,2-b]pyridin-1-yl)propan-1-amine] |
| < 100 nM | > 1000 nM | CNCCC(c1cccs1)N1CC(C)(C)c2ncc(C#N)cc21 (stereo not drawn) [Example 97, 3,3-Dimethyl-1-(3-(methylamino)-1-(thiophen-2-yl)propyl)-2,3-dihydro-1H-pyrrolo[3,2-b]pyridine-6-carbonitrile] |
| 100 to 500 nM | > 1000 nM | CNCC[C@H](c1ccsc1)N1CCc2ncc(C)cc21 [Example 103, (R)—N-methyl-3-(6-methyl-2,3-dihydro-1H-pyrrolo[3,2-b]pyridin-1-yl)-3-(thiophen-3-yl)propan-1-amine] |
